Experimental data published in patent publication US9725414B2, “Fungicidal N-bicycloalkyl and N-tricycloalkyl pyrazole-4-(thio)carboxamide derivatives” (priority 2011, dated 2017).

Tests used:
[1] = tested on: Leptosphaeria nodorum; test: Example K: in vivo preventive test on Leptosphaeria nodorum (wheat); settings: 500 ppm of active ingredient, evaluated 8 days after inoculation
Experimental: (§1) In Vivo Preventive Test on Leptosphaeria nodorum (Wheat) Solvent: 49 parts by weight of N,N-dimethylacetamide Emulsifier: 1 part by weight of alkylaryl polyglycol ether To produce a suitable preparation of active compound, 1 part by weight of active compound or active compound combination is mixed with the stated amounts of solvent and emulsifier, and the concentrate is diluted with water to the desired concentration. To test for preventive activity, young plants are sprayed with the preparation of active compound or active compound combination at the stated rate of application. After the spray coating has been dried, the plants are sprayed with a spore suspension of Leptosphaeria nodorum. The plants remain for 48 hours in an incubation cabinet at approximately 20° C. and a relative atmospheric humidity of approximately 100%.

[2] = tested on: Pyrenophora teres; test: Example E: in vivo preventive test on Pyrenophora teres (barley), DMF/emulsifier preparation; settings: 500 ppm of active ingredient, evaluated 7-9 days after inoculation
Summary of the method: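 Young barley plants sprayed preventively with compound formulated in DMF/alkylaryl polyglycol ether emulsifier and diluted in water. One day later inoculated with aqueous Pyrenophora teres spore suspension, then held 48 h at 22 °C and 100% relative humidity.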

[3] = tested on: Blumeria graminis f.sp. hordei; test: Example J: in vivo preventive test on Blumeria graminis (barley); settings: 500 ppm of active ingredient, evaluated 7 days after inoculation
Experimental: In Vivo Preventive Test on Blumeria graminis (Barley) Solvent: 49 parts by weight of N,N-dimethylacetamide Emulsifier: 1 part by weight of alkylaryl polyglycol ether To produce a suitable preparation of active compound, 1 part by weight of active compound or active compound combination is mixed with the stated amounts of solvent and emulsifier, and the concentrate is diluted with water to the desired concentration. To test for preventive activity, young plants are sprayed with the preparation of active compound or active compound combination at the stated rate of application. After the spray coating has been dried, the plants are dusted with spores of Blumeria graminis f.sp. hordei.

[4] = tested on: Sphaerotheca fuliginea; test: Example A: in vivo preventive test on Sphaerotheca fuliginea (cucumber); settings: 500 ppm of active ingredient, evaluated 7 days after inoculation
Experimental: In Vivo Preventive Test on Sphaerotheca fuliginea (Cucumber) Solvent: 49 parts by weight of N,N-dimethylformamide Emulsifier: 1 part by weight of alkylarylpolyglycolether To produce a suitable preparation of active compound, 1 part by weight of active compound is mixed with the stated amounts of solvent and emulsifier, and the concentrate is diluted with water to the desired concentration. To test for preventive activity, young plants are sprayed with the preparation of active compound at the stated rate of application. One day after this treatment, the plants are inoculated with an aqueous spore suspension of Sphaerotheca fuliginea. Then the plants are placed in a greenhouse at approximately 23° C. and a relative atmospheric humidity of approximately 70%.

[5] = log P by HPLC on reversed-phase column (C 18), EEC Directive 79831 Annex V.A8; assay type: physicochemical; settings: for logP: HPLC reversed-phase C 18, 40° C., 0.1% aqueous formic acid and acetonitrile gradient, several values = mixture of two or more isomers
Summary of the method: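 Reversed-phase C18 HPLC at 40° C, 0.1% aqueous formic acid/acetonitrile linear gradient 10% to 90% acetonitrile, per EEC Directive 79831 Annex V.A8. log P obtained from retention time by linear interpolation between unbranched alkan-2-ones (C3-C16) of known log P.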

[6] = tested on: Venturia inaequalis; test: Example G: in vivo preventive test on Venturia inaequalis (apple scab); settings: 100 ppm of active ingredient, evaluated 10 days after inoculation
Experimental: In Vivo Preventive Test on Venturia inaequalis (Apple Scab) Solvent: 24.5 parts by weight of acetone • 24.5 parts by weight of N,N-dimethylacetamide Emulsifier: 1 part by weight of alkylaryl polyglycol ether To produce a suitable preparation of active compound, 1 part by weight of active compound is mixed with the stated amounts of solvent and emulsifier, and the concentrate is diluted with water to the desired concentration. To test for preventive activity, young plants are sprayed with the preparation of active compound at the stated rate of application. After the spray coating has dried on, the plants are inoculated with an aqueous conidia suspension of the causal agent of apple scab (Venturia inaequalis) and then remain for 1 day in an incubation cabinet at approximately 20° C. and a relative atmospheric humidity of 100%. The plants are then placed in a greenhouse at approximately 21° C. and a relative atmospheric humidity of approximately 90%.

[7] = tested on: Septoria tritici; test: Example H: in vivo preventive test on Septoria tritici (wheat), N,N-dimethylacetamide/emulsifier preparation; settings: 500 ppm of active ingredient, evaluated 21 days after inoculation
Experimental: as §1, with “Test on Septoria tritici (Wheat) Solvent:” for “Test on Leptosphaeria nodorum (Wheat) Solvent:”, “suspension of Septoria tritici. The plants” for “suspension of Leptosphaeria nodorum. The plants”, “of approximately 100% and afterwards for 60 hours at approximately 15° C. in a translucent incubation cabinet at a relative atmospheric humidity of approximately 100%.” for “of approximately 100%.”

[8] = tested on: Fusarium nivale (var. majus); test: Example N: in vivo preventive test on Fusarium nivale (wheat); settings: 500 ppm of active ingredient, evaluated 5 days after inoculation
Experimental: In Vivo Preventive Test on Fusarium nivale (Wheat) Solvent: 49 parts by weight of N,N-dimethylacetamide Emulsifier: 1 part by weight of alkylaryl polyglycol ether To produce a suitable preparation of active compound, 1 part by weight of active compound or active compound combination is mixed with the stated amounts of solvent and emulsifier, and the concentrate is diluted with water to the desired concentration. To test for preventive activity, young plants are sprayed with the preparation of active compound or active compound combination at the stated rate of application. After the spray coating has been dried, the plants are slightly injured by using a sandblast and afterwards they are sprayed with a conidia suspension of Fusarium nivale (var. majus). The plants are placed in the greenhouse under a translucent incubation cabinet at a temperature of approximately 10° C. and a relative atmospheric humidity of approximately 100%.

[9] = tested on: Alternaria solani; test: Example C: in vivo preventive test on Alternaria solani (tomato); settings: 500 ppm of active ingredient, evaluated 7 days after inoculation
Summary of the method: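 Young tomato plants sprayed preventively with compound formulated in DMF/emulsifier and diluted with water, then inoculated one day later with Alternaria solani spores. Plants were held one day at about 22° C, 100% humidity, then at about 20° C, 96% humidity.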

[10] = tested on: Botrytis cinerea; test: Example O: in vivo protective test on Botrytis cinerea (beans); settings: 100 ppm of active ingredient, lesion size 2 days after inoculation
Experimental: In Vivo Protective Test on Botrytis cinerea (Beans)
Solvent: 24.5 parts by weight of acetone • 24.5 parts by weight of N,N-dimethylacetamide
(§2) Emulsifier: 1 part by weight of alkylaryl polyglycol ether
To produce a suitable preparation of active compound, 1 part by weight of active compound is mixed with the stated amounts of solvent and emulsifier, and the concentrate is diluted with water to the desired concentration.
To test for preventive activity, young plants are sprayed with the preparation of active compound. After the spray coating has dried on, 2 small pieces of agar covered with growth of Botrytis cinerea are placed on each leaf. The inoculated plants are placed in a darkened chamber at 20° C. and a relative atmospheric humidity of 100%.
2 days after the inoculation, the size of the lesions on the leaves is evaluated. 0% means an efficacy which corresponds to that of the untreated control, while an efficacy of 100% means that no disease is observed.

[11] = tested on: Pyricularia oryzae; assay type: in vivo; settings: Pyricularia oryzae on rice plants, preventive, 500 ppm of active ingredient, grading 6 days after contamination
[12] = tested on: Septoria tritici; test: Example I: in vivo preventive test on Septoria tritici (wheat), acetone/tween/DMSO preparation; settings: 500 ppm of active ingredient, grading 24 days after contamination
Summary of the method: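 Scipion wheat grown at 22° C, sprayed at 1-leaf stage (10 cm); controls received acetone/tween/DMSO/water without active. Inoculated 24 h later with S. tritici spores (500 000/mL), held 72 h at 18° C, 100% RH, then 21 days at 90% RH. % efficacy vs controls scored 24 days post-inoculation.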

[13] = tested on: Sphaerotheca fuliginea; test: Example B: in vivo preventive test on Sphaerotheca fuliginea (powdery mildew on cucurbits), gherkin plants; settings: 500 ppm of active ingredient, grading 12 days after contamination
Summary of the method: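 Gherkin plants grown at 24 °C were sprayed with compound at the Z11 cotyledon stage; controls received acetone/tween/DMSO/water without active. 24 h later, cotyledons were inoculated by spraying with Sphaerotheca fuliginea spores (100 000 spores per mL).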

[14] = tested on: Puccinia recondita; test: Example M: in vivo preventive test on Puccinia recondita (brown rust on wheat); settings: 500 ppm of active ingredient, grading 12 days after contamination
Summary of the method: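 Wheat (Scipion) sprayed with compound at 1-leaf stage, grown at 22° C. Inoculated 24 h later with a spore suspension at 100 000 spores per mL. Efficacy (%) graded 12 days after inoculation against solvent-treated controls.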

[15] = tested on: Puccinia triticina; test: Example L: in vivo preventive test on Puccinia triticina (wheat); settings: 500 ppm of active ingredient, evaluated 8 days after inoculation
Experimental: In Vivo Preventive Test on Puccinia triticina (Wheat)
Solvent: 49 parts by weight of N,N-dimethylacetamide
as §2
To produce a suitable preparation of active compound, 1 part by weight of active compound or active compound combination is mixed with the stated amounts of solvent and emulsifier, and the concentrate is diluted with water to the desired concentration.
To test for preventive activity, young plants are sprayed with the preparation of active compound or active compound combination at the stated rate of application.
After the spray coating has been dried, the plants are sprayed with a spore suspension of Puccinia triticina.
The plants remain for 48 hours in an incubation cabinet at approximately 20° C. and a relative atmospheric humidity of approximately 100%.
The plants are placed in the greenhouse at a temperature of approximately 20° C. and a relative atmospheric humidity of approximately 80%.
The test is evaluated 8 days after the inoculation. 0% means an efficacy which corresponds to that of the untreated control, while an efficacy of 100% means that no disease is observed.

[16] = tested on: Botrytis cinerea; test: Example P: in vivo preventive test on Botrytis cinerea (grey mould), gherkin plants; settings: 500 ppm of active ingredient, grading 4 to 5 days after contamination
Summary of the method: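 Gherkin plants at Z11 cotyledon stage sprayed preventively with active ingredient, then inoculated 24 h later with B. cinerea spores (50 000/mL) in PDB/fructose nutrient solution. Incubation at 17 °C and 90% RH; % efficacy graded 4–5 days post-inoculation against solvent-treated controls.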

[17] = tested on: Pyrenophora teres; test: Example F: in vivo preventive test on Pyrenophora teres (barley), acetone/tween/DMSO preparation; settings: 500 ppm of active ingredient, barley, grading 14 days after contamination
Summary of the method: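 Barley ("Plaisant") grown at 22° C was sprayed at the 1-leaf stage (10 cm) with active ingredient in acetone/tween/DMSO/water, with solvent-only controls. After 24 h, leaves were inoculated with Pyrenophora teres spores (12 000 spores per mL) from 12-day cultures. % efficacy versus controls graded 14 days post-contamination.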

[18] = tested on: Alternaria brassicae; test: Example D: in vivo preventive test on Alternaria brassicae (leaf spot on radish); settings: 500 ppm of active ingredient, grading 6 days after contamination
Summary of the method: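 Radish plants at cotyledon stage were sprayed with compound; controls got the acetone/tween/DMSO/water mix alone. After 24 h they were inoculated with Alternaria brassicae spores (50 000 spores per mL) and kept at 20 °C, 100% relative humidity. % efficacy versus controls was graded 6 days post-inoculation.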

[19] = tested on: Uromyces appendiculatus; test: Example Q: in vivo preventive test on Uromyces appendiculatus (bean rust); settings: Uromyces appendiculatus on bean plants, 500 ppm of active ingredient, grading 11 days after contamination
Summary of the method: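 Saxa bean plants at 2-leaf stage, grown at 24° C., sprayed preventively with compound; 24 h later inoculated with U. appendiculatus spores (150 000 spores per mL). Percent efficacy graded 11 days after inoculation versus solvent-treated controls.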

| Compound | Efficacy [1] [%] | Efficacy [2] [%] | Efficacy [3] [%] | Efficacy [4] [%] | logP [5] | Efficacy [6] [%] | Efficacy [7] [%] | Efficacy [8] [%] | Efficacy [9] [%] | Efficacy [10] [%] | Efficacy [11] [%] | Efficacy [12] [%] | Efficacy [13] [%] | Efficacy [14] [%] | Efficacy [15] [%] | Efficacy [16] [%] | Efficacy [17] [%] | Efficacy [18] [%] | Efficacy [19] [%] | chromatographic logP [5] |
| --- | --- | --- | --- | --- | --- | --- | --- | --- | --- | --- | --- | --- | --- | --- | --- | --- | --- | --- | --- | --- |
| CC(C1CC2CCC1C2)N(C(=O)c1cn(C)nc1C(F)F)C1CC1 (stereo not shown) [Example 94] | 80 | 100 | 89 | 100 | 3.52 | 100 | 100 | 100 | 100 | 100 | – | – | – | – | – | – | – | – | – | – |
| Cn1nc(C(F)F)c(C(=O)N(CC2(Cc3ccccc3)CC3CCC2C3)C2CC2)c1Cl (stereo not shown) [Example 68] | – | – | – | – | 5.06 | – | – | – | – | – | 80 | 71 | 98 | 75 | – | – | – | – | – | – |
| CC1CC(C)(C)C2CCCC(NC(=O)c3c(C(F)F)nn(C)c3F)C12 (stereo not shown) [Example 14] | – | 100 | 90 | 98 | 4.29 | 99 | 75 | 88 | 100 | 100 | – | – | – | – | 83 | – | – | – | – | – |
| Cn1nc(C(F)F)c(C(=O)N(C2CC2)C2CCCC3CCCCC32)c1F (mixture of isomers) [Example 31] | – | – | – | – | – | – | – | – | – | – | 80 | 96 | 100 | 100 | – | 100 | 97 | 100 | 100 | – |
| Cn1nc(C(F)F)c(C(=O)NC2CCC3CCCC32)c1F (stereo not shown) [Example 2] | – | – | – | – | 2.86 | – | – | – | – | – | 71 | – | – | 98 | – | 70 | – | 70 | 98 | – |
| CON(C(=O)c1cn(C)nc1C(F)F)C1CCC2CCCCC21 (stereo not shown) [Example 11] | – | – | – | – | 3.50 | – | – | – | – | – | 92 | 71 | 100 | 94 | – | – | 100 | 100 | 100 | – |
| CC(N(C(=O)c1cn(C)nc1C(F)F)C1CC1)C12CC3CC(CC(C3)C1)C2 (stereo not shown) [Example 105] | – | 100 | – | 100 | 4.30 | 100 | 80 | – | 95 | 100 | – | – | – | – | – | – | – | – | – | – |
| Cc1nn(C)c(F)c1C(=O)N(C1CC1)C(C)C12CC3CC(CC(C3)C1)C2 (stereo not shown) [Example 103, N-[1-(adamantan-1-yl)ethyl]-N-cyclopropyl-5-fluoro-1,3-dimethyl-1H-pyrazole-4-carboxamide] | – | 100 | – | 96 | – | 100 | 100 | – | 100 | 99 | – | – | – | – | – | – | – | – | – | 4.3 |
